Columns and labels:
[1] = tested on: fungal tyrosinase (EC. 1.14.18.1); experiment: Measurement of the power to inhibit tyrosinase (L-Dopa oxidation to dopachrome, O.D. at 475 nm); format: biochemical; conditions: for Concentration which inhibits the enzymatic activity of tyrosinase by 50%: fungal tyrosinase, L-Dopa substrate, pH 6.5, 30° C.; for Times more active than hydroquinone in inhibiting tyrosinase: relative to hydroquinone
Protocol: The following reaction is used: colourless L-Dopa (L-3,4-dihydroxyphenylalanine, obtained from Sigma (ref. D-9628)) is oxidized to coloured dopachrome, which absorbs at 475 nm. This reaction is catalyzed by fungal tyrosinase (EC. 1.14.18.1, obtained from Sigma (ref. T-7755)). The kinetics of the reaction are recorded by the measurement of the optical density (O.D.) as a function of the time at 30° C.
The compositions of the various solutions used are as follows:
L-Dopa at 0.35% (w/v) in the pH 6.5 buffer solution.
The inhibiting molecules are dissolved directly in the pH 6.5 buffer, in 50% methanol (methanol/distilled water) or in pure methanol, depending upon their solubility.
The concentrations in weight by volume of the various solutions of inhibitors are: 0.2%, 0.1%, 0.05%, 0.025%, 0.0125%, 0.00625% and 0.00312%.
Tyrosinase at 0.010% (w/v) in the pH 6.5 buffer solution.
The amounts of these various solutions used during the tests are presented in Tables 1 and 2 for each reaction studied:
The action of tyrosinase is evaluated by the initial rate of the reaction measured on the O.D. recording.
The initial rates of reactions without inhibitors (concentration 0) and the rates at the various concentrations tested are plotted on a curve.
The inhibiting power of a molecule is defined as the concentration which reduces the action of tyrosinase by 50%.

[2] = tested on: pigmented skin of guinea pigs; experiment: Test of the depigmenting power on pigmented guinea pigs; conditions: glycerol-based cream comprising 5% of product, twice daily
Protocol: Guinea pigs with a pigmented skin, shaved beforehand, received twice daily, 5 days out of 7, during one to two months of treatment, applications of a glycerol-based cream comprising 5% of kojic acid (ref. Aldrich 22,046-9) or 5% of hydroquinone (ref. Aldrich H 1,790-2) or 5% of benzoyl isothiocyanate (ref. Aldrich 30,818-8) or 5% of synthetic sulforaphane prepared according to Example 3. These applications were carried out on circular regions with a diameter of 2 cm pinpointed by indelible marking using yellow ink.

cultured melanocytes = experiment: Power to inhibit the synthesis of melanin with regard to cultured melanocytes; format: cell-based; conditions: for Effect on the synthesis of melanin (in words) / Inhibition of the synthesis of melanin: concentration of 0.00035%; for Inhibition of the synthesis of melanin: 8 independent tests
Protocol: These tests were carried out on different batches of cells during experiments which were independent and repeated (8 times).
The results are expressed in mg/ml of melanin in so far as the cells are inoculated at the same concentration.

[3] = tested on: Type-6 pigmented epidermis (reconstituted human skin); experiment: Power to inhibit the synthesis of melanin with regard to pigmented human skin reconstituted in culture; format: cell-based; conditions: daily for 5 days, then two further days
Protocol: Type-6 pigmented epidermis (corresponding to black skin), in a proportion of three samples per test, were treated daily for 5 days with a control cream with the following composition (as % by weight): [table] with kojic acid at a concentration of 3.5×10^−5 (w/w) and with sulforaphane at a concentration of 3.5×10^−6 (w/w) in the same cream acting as excipient. At the end of the treatment, the culture skin is left for a further two days and the melanin is extracted from the treated skin and from the control skin with a mixture of solvents and sodium hydroxide (Solvable® from Packard Bioscience B.V.) and the melanin extracted is quantified by colorimetry according to a method described previously (Chemical Characterization of Hair Melanins in Various Coat-Color Mutants of Mice; Hiroyuki Ozeki et al., J. Invest.

| Compound | Concentration which inhibits the enzymatic activity of tyrosinase by 50% [1] | Effect on the synthesis of melanin (in words) (cultured melanocytes) | Inhibition of the synthesis of melanin (cultured melanocytes) | also measured |
| --- | --- | --- | --- | --- |
| CC(=O)N=C=S [Acetyl isothiocyanate] | 0.055 % (weight/volume) | – | – | – |
| O=C(N=C=S)c1ccccc1 [Benzoyl isothiocyanate] | 0.0063 % (weight/volume) | no longer have an effect | 9.5% | Desquamation of the skin at the application spots ([2]; 5 days out of 7): desquamation of the skin; Times more active than hydroquinone in inhibiting tyrosinase [1]: approximately 24 times |
| S=C=NCc1ccccc1 [Benzyl isothiocyanate] | 0.0980 % (weight/volume) | – | – | – |
| N#CSCc1ccccc1 [Benzyl thiocyanate] | 0.25 % (weight/volume) | – | – | – |
| S=C=NC1CCCCC1 [Cyclohexyl isothiocyanate] | 0.104 % (weight/volume) | – | – | – |
| Oc1ccc(O)cc1 [Hydroquinone] | 0.154 % (weight/volume) | inhibit the synthesis of melanin | 42% | Cytotoxicity (cultured melanocytes; cultured melanocytes): excessively high cytotoxicity |
| O=c1cc(CO)occ1O [Kojic acid, kojic acid, reference compound] | – | no longer have an effect | 1% | Whitening of the skin ([2]; 5 days out of 7, after treating for 4 weeks): no effect; Inhibition of the synthesis of melanin (melatonin [sic]) ([3]; 3.5×10^−5 (w/w) in cream): 8% |
| N#C[S-].[K+] [Potassium thiocyanate] | 0.20 % (weight/volume) | – | – | – |
| C[S+]([O-])CCCCN=C=S (centres unmarked) [Sulforaphane] | 0.103 % (weight/volume) | inhibit the synthesis of melanin | 26.22% | Inhibition of the synthesis of melanin (melatonin [sic]) ([3]; 3.5×10^−6 (w/w) in cream): 30%; Times more active than hydroquinone in inhibiting tyrosinase [1]: approximately 1.5 times |

Source: patent US20040077715A1, “Use of an isothiocyanate, a thiocyanate or a mixture thereof as depigmenting agent” (priority 2001, published 2004)
